Assay: xn = mol fraction of the nth substance listed
Conditions: 101 kPa

CN(C)C=O + CCCC[n+]1ccn(C)c1.F[P-](F)(F)(F)(F)F
x1 = 1
Conditions | viscosity [mPa·s]
303.15 K | 0.83
313.15 K | 0.74
323.15 K | 0.66

CCCC[n+]1ccn(C)c1.F[P-](F)(F)(F)(F)F + CN(C)C=O
viscosity [mPa·s]
Conditions | x2 = 0 | x2 = 0.3028 | x2 = 0.4909 | x2 = 0.6262 | x2 = 0.7227 | x2 = 0.7963 | x2 = 0.8543 | x2 = 0.9012 | x2 = 0.9399 | x2 = 0.9724
303.15 K | – | 52.1 | 15.21 | 6.21 | 3.48 | – | 1.93 | 1.5 | – | 0.98
313.15 K | 129.7 | 28.84 | – | 5.2 | 3.33 | 2.12 | – | 1.26 | 1.05 | 0.83
323.15 K | 88.5 | 25.91 | – | – | 2.2 | 1.82 | 1.51 | 1.08 | 0.91 | 0.77

— a compilation of properties of binary mixtures (doi:10.1016/j.molliq.2016.03.072)
